Experimental data taken from patent publication US12692254B2, “Benzimidazole inhibitors of PAD enzymes” (BRISTOL-MYERS SQUIBB COMPANY, priority 2018, dated 2026).

molecular target: human PAD4 (hPAD4) (Homo sapiens, UniProt Q9UM07); assay: RFMS human PAD4 functional assay (rapid-fire mass spectrum); format: biochemical; details: 5 nM hPAD4 enzyme, 250 μM BAEE, 50 μM Calcium; 30 min preincubation, 90 min reaction at 37° C.
Procedure: Compounds of the present invention were assayed as inhibitors of PAD4 using the assay protocol described below.
RFMS tinman PAD4 Functional Assay:
Compounds were solubilized in 100% DMSO to achieve a 10 mM compound concentration. Compound stock solutions were stored at RT. A series of dilutions were prepared in DMSO and mixed 8 times with 20 μl, mixing volume. Final top concentration of compound in the assay is 50 μM. […] 1-90 min enzyme/substrate reaction, 30 min reaction with phenyl glyoxal at 37° C. • Stop solution: 40 μl 5% TCA in ACN
0.13 μL of compound solution was added to 13 μL of 10 nM PAD4 in assay buffer. After 30 min 13 μl of 500 μM of BAEE was added in 25 mM hepes, pH 7.5, 5 mM NaCl, 1 mM DTT, 0.2 mg/ml BS A, 0.01% CHAPS, 50 μM Calcium, 5 μM TPEN was added and the reaction incubated for 90 min at 37° C. The enzymatic reaction was quenched by addition of 15 μl of 6.1N TCA, 100% Final Concentration is 20%, 35 μl of 8.5 mM phenyl glyoxal (final concentration 4 mM) is then added and the reaction is incubated for 30 min at 37° C.
After 30 minutes the plates are spun down to remove all precipitate. The enzyme reaction was quenched with an equal volume of methanol containing internal standard (modified citrulline). Samples were loaded onto the Rapid Fire RF300 system (Agilent) wherein they were first sipped for 1000 ms and then directly loaded to a C18 separations cartridge using a mixture of acetonitrile containing 0.01% formic acid for 3000 ms desalting. The flow rate of the mobile phase was 1.5 ml/min.
The dwell time for each transition was set at 200 ms, and the ESI voltage was used at 5500 with a source temperature of 400° C. Extracted ion peaks for each transition were integrated using the Rapid Fire Integrator software. Peak area of analyte was normalized with internal standard).

human PAD4 (hPAD4), sequence (Q9UM07 whole entry): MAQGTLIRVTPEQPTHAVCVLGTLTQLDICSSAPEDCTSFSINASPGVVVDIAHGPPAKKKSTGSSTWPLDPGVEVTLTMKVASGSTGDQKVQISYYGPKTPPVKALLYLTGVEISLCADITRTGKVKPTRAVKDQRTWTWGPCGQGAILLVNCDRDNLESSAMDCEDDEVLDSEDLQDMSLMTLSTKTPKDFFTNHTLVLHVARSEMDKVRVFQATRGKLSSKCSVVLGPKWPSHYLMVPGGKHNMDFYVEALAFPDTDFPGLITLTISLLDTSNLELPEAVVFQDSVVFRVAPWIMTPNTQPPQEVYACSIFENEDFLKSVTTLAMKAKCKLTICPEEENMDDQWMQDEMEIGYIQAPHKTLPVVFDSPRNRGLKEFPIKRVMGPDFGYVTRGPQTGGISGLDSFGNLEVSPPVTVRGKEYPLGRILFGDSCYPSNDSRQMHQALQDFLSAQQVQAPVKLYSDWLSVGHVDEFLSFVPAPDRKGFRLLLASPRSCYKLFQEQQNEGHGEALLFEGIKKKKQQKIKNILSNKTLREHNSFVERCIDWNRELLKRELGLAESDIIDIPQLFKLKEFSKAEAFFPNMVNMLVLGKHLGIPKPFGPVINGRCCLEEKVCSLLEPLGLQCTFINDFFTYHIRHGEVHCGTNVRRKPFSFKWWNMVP

Compound	IC50 [nM]
6-[(3S)-3-({5-[(1R,4R,7R,)-7- amino-2- azabicyc1o[2.2.1]heptane-2- carbonyl]-7-methoxy-2-{1- methyl-1H-pyrrolo[2,3- b]pyridin-2-yl}-1H-1,3- benzodiazol-1- yl}methyl)pyrrolidin-1- yl]pyrazine-2-carbonitrile [Example 235]	366
COc1cc(C(=O)N2C[C@H](N)C[C@@H](F)C2)cc2nc(-c3cc4ccccc4n3CC3CC3)n(CC3CN(C(=O)c4ccccc4)C3)c12 [Example 160, (3R,5R)-1-{1-[(1-benzoylazetidin-3-yl)methyl]-2-[1-(cyclopropylmethyl)-1H-indol-2-yl]-7-methoxy-1H-1,3-benzodiazole-5-carbonyl}-5-fluoropiperidin-3-amine]	25
COc1cc(C(=O)N2C[C@H]3CC[C@@H]2[C@@H]3N)cc2nc(-c3cc4cccnc4n3CC3CC3)n(CC3CCN(C(=O)c4ccnc(F)c4)CC3)c12 [Example 197, (1R,4R,7R)-2-{2-[1-(cyclopropylmethyl)-1H-pyrrolo[2,3-b]pyridin-2-yl]-1-{[1-(2-fluoropyridine-4-carbonyl)piperidin-4-yl]methyl}-7-methoxy-1H-1,3-benzodiazole-5-carbonyl}-2-azabicyclo[2.2.1]heptan-7-amine]	117
COc1cc(C(=O)N2C[C@H]3CC[C@@H]2[C@@H]3N)cc2nc(-c3cc4cccnc4n3CC3CC3)n(CC3CN(C(=O)c4cnc(NCC(C)(C)O)nc4)C3)c12 [Example 121, 1-({5-[3-({5-[(1R,4R,7R)-7-amino-2-azabicyclo[2.2.1]heptane-2-carbonyl]-2-[1-(cyclopropylmethyl)-1H-pyrrolo[2,3-b]pyridin-2-yl]-7-methoxy-1H-1,3-benzodiazol-1-yl}methyl)azetidine-1-carbonyl]pyrimidin-2-yl}amino)-2-methylpropan-2-ol]	95
COc1cc(C(=O)N2CCC[C@@H](N)C2)cc2nc(-c3cc4cccnc4n3CC3CC3)n(CCNS(C)(=O)=O)c12 [Example 292, N-(2-{5-[(3R)-3-aminopiperidine-1-carbonyl]-2-[1-(cyclopropylmethyl)-1H-pyrrolo[2,3-b]pyridin-2-yl]-7-methoxy-1H-1,3-benzodiazol-1-yl}ethyl)methanesulfonamide]	2060
COc1cc(C(=O)N2C[C@H]3CC[C@@H]2[C@@H]3N)cc2nc(-c3cc4cccnc4n3C)n(CC3CN(c4cncc(C#N)n4)C3)c12 [Example 40, 6-[3-({5-[(1R,4R,7R)-7-amino-2-azabicyclo[2.2.1]heptane-2-carbonyl]-7-methoxy-2-{1-methyl-1H-pyrrolo[2,3-b]pyridin-2-yl}-1H-1,3-benzodiazol-1-yl}methyl)azetidin-1-yl]pyrazine-2-carbonitrile]	98
COc1cc(C(=O)N2C[C@H](N)C[C@@H](F)C2)cc2nc(-c3cc4cccnc4n3CC3CC3)n(Cc3cnn(-c4cccc(Cl)n4)c3)c12 [Example 389, (3R,5R)-1-(1-{[1-(6-chloropyridin-2-yl)-1H-pyrazol-4-yl]methyl}-2-[1-(cyclopropylmethyl)-1H-pyrrolo[2,3-b]pyridin-2-yl]-7-methoxy-1H-1,3-benzodiazole-5-carbonyl)-5-fluoropiperidin-3-amine]	43
COc1cc(C(=O)N2CC3CCC2[C@@H]3N)cc2nc(-c3cc4cccnc4n3CC3CC3)n(C3CN(S(=O)(=O)C4CC4)C3)c12 (some centres unmarked) [Example 328]	125
COc1cc(C(=O)N2C[C@H]3CC[C@@H]2[C@@H]3N)cc2nc(-c3cc4cccnc4n3CC3CC3)n(CC3CN(c4ccnc(C5CC5)n4)C3)c12 [Example 105, (1R,4R,7R)-2-{2-[1-(cyclopropylmethyl)-1H-pyrrolo[2,3-b]pyridin-2-yl]-1-{[1-(2-cyclopropylpyrimidin-4-yl)azetidin-3-yl]methyl}-7-methoxy-1H-1,3-benzodiazole-5-carbonyl}-2-azabicyclo[2.2.1]heptan-7-amine]	31

More lines, now with the values ahead:

IC50 [nM]	Compound
21	COc1cc(C(=O)N2C[C@H]3CC[C@@H]2[C@@H]3N)cc2nc(-c3cc4ccccc4n3CC3CC3)n(CC3CN(C(=O)c4cccc(Cl)c4)C3)c12 [Example 154, (1R,4R,7R)-2-(1-{[1-(3-chlorobenzoyl)azetidin-3-yl]methyl}-2-[1-(cyclopropylmethyl)-1H-indol-2-yl]-7-methoxy-1H-1,3-benzodiazole-5-carbonyl)-2-azabicyclo[2.2.1]heptan-7-amine]
46	Cc1cc(C(=O)N2CC3CCC2[C@@H]3N)cc2nc(-c3cc4ccccc4n3CC3CC3)n(CC3CN(C(=O)c4ccccc4)C3)c12 (stereo partly drawn) [Example 450, (7R)-2-{1-[(1-benzoylazetidin-3-yl)methyl]-2-[1-(cyclopropylmethyl)-1H-indol-2-yl]-7-methyl-1H-1,3-benzodiazole-5-carbonyl}-2-azabicyclo[2.2.1]heptan-7-amine]
28	COc1cc(C(=O)N2C[C@H]3CC[C@@H]2[C@@H]3N)cc2nc(-c3cc4ccccc4n3CC3CC3)n(CC3CN(c4cncc(C#N)n4)C3)c12 [Example 65, 6-[3-({5-[(1R,4R,7R)-7-amino-2-azabicyclo[2.2.1]heptane-2-carbonyl]-2-[1-(cyclopropylmethyl)-1H-indol-2-yl]-7-methoxy-1H-1,3-benzodiazol-1-yl}methyl)azetidin-1-yl]pyrazine-2-carbonitrile]
100	COc1cc(C(=O)N2CC3CCC2[C@@H]3N)cc2nc(-c3cc4ccccc4n3CC3CC3)n(CC3CC3)c12 (stereo partly drawn) [Example 476, (7R)-2-[1-(cyclopropylmethyl)-2-[1-(cyclopropylmethyl)-1H-indol-2-yl]-7-methoxy-1H-1,3-benzodiazole-5-carbonyl]-2-azabicyclo[2.2.1]heptan-7-amine]
152	COc1cc(C(=O)N2C[C@H]3CC[C@@H]2[C@@H]3N)cc2nc(-c3cc4cccnc4n3CC3CC3)n(CC3CN(c4ccnc(C)c4)C3)c12 [Example 51, (1R,4R,7R)-2-{2-[1-(cyclopropylmethyl)-1H-pyrrolo[2,3-b]pyridin-2-yl]-7-methoxy-1-{[1-(2-methylpyridin-4-yl)azetidin-3-yl]methyl}-1H-1,3-benzodiazole-5-carbonyl}-2-azabicyclo[2.2.1]heptan-7-amine]
18	CNc1cc(C(=O)N2CC(Cn3c(-c4cc5ccccc5n4CC4CC4)nc4cc(C(=O)N5CC6CCC5[C@@H]6N)cc(OC)c43)C2)ccn1 (stereo partly drawn) [Example 412, (7R)-2-{2-[1-(cyclopropylmethyl)-1H-indol-2-yl]-7-methoxy-1-({1-[2-(methylamino)pyridine-4-carbonyl]azetidin-3-yl}methyl)-1H-1,3-benzodiazole-5-carbonyl}-2-azabicyclo[2.2.1]heptan-7-amine]
39	COc1cc(C(=O)N2CC3CCC2[C@@H]3N)cc2nc(-c3cc4cccnc4n3CC3CC3)n(CC3CN(C(=O)c4ccccc4F)C3)c12 (stereo partly drawn) [Example 442, (7R)-2-{2-[1-(cyclopropylmethyl)-1H-pyrrolo[2,3-b]pyridin-2-yl]-1-{[1-(2-fluorobenzoyl)azetidin-3-yl]methyl}-7-methoxy-1H-1,3-benzodiazole-5-carbonyl}-2-azabicyclo[2.2.1]heptan-7-amine]
498	COc1cc(C(=O)N2C[C@H]3CC[C@@H]2[C@@H]3N)cc2nc(-c3cc4cccnc4n3CC3CC3)n(CC3CN(S(C)(=O)=O)C3)c12 [Example 338, (1R,4R,7R)-2-{2-[1-(cyclopropylmethyl)-1H-pyrrolo[2,3-b]pyridin-2-yl]-1-[(1-methanesulfonylazetidin-3-yl)methyl]-7-methoxy-1H-1,3-benzodiazole-5-carbonyl}-2-azabicyclo[2.2.1]heptan-7-amine]
555	COc1cc(C(=O)N2C[C@H]3CC[C@@H]2[C@@H]3N)cc2nc(-c3cc4ccccc4n3CC3CC3)n(Cc3ccccn3)c12 [Example 280, (1R,4R,7R)-2-{2-[1-(cyclopropylmethyl)-1H-indol-2-yl]-7-methoxy-1-[(pyridin-2-yl)methyl]-1H-1,3-benzodiazole-5-carbonyl}-2-azabicyclo[2.2.1]heptan-7-amine]
24	COc1cc(C(=O)N2CC3CCC2[C@@H]3N)cc2nc(-c3cc4ccccc4n3CC3CC3)n(CC3(C)CN(C(=O)c4ccccc4)C3)c12 (stereo partly drawn) [Example 426, (7R)-2-{1-[(1-benzoyl-3-methylazetidin-3-yl)methyl]-2-[1-(cyclopropylmethyl)-1H-indol-2-yl]-7-methoxy-1H-1,3-benzodiazole-5-carobnyl}-2-azabicyclo[2.2.1]heptan-7-amine]
129	COc1cc(C(=O)N2CC3CCC2[C@@H]3N)cc2nc(-c3cc4ccccc4n3CC3CC3)n(CC3CC(=O)N(C)C3)c12 (stereo partly drawn) [Example 473, 4-({5-[(7R)-7-amino-2-azabicyclo[2.2.1]heptane-2-carbonyl]-2-[1-(cyclopropylmethyl)-1H-indol-2-yl]-7-methoxy-1H-1,3-benzodiazol-1-yl}methyl)-1-methylpyrrolidin-2-one]
